Data as given in PubChem BioAssay AID328 (DTP/NCI, 2004).
Where “and” joins values, the source holds several entries; their conditions need not be identical. Equal entries are not always repeated. Toxic doses and inconclusive results are not listed. The calls were made as follows: active = survival T/C of 150% or more; inactive = T/C below 125% in these data.

System: BDF1 mice, P388 leukemia ip, median survival T/C
Assay: NCI In Vivo Anticancer Drug Screen. Data for tumor model P388 Leukemia (intraperitoneal) in B6D2F1 (BDF1) mice
Conditions: endpoint: median survival time, higher = longer survival
How it was run: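 Read-out is survival of treated animals expressed relative to the vehicle group, as a T/C ratio.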

[1] = dose: 50.0 mg/kg/injection, schedule: Q01DX009 (ip), vehicle: Klucel (hydroxypropylcellulose) (HPC)
[2] = dose: 100.0 mg/kg/injection, schedule: Q01DX009 (ip), vehicle: Klucel (hydroxypropylcellulose) (HPC)
[3] = dose: 200.0 mg/kg/injection, schedule: Q01DX009 (ip), vehicle: Klucel (hydroxypropylcellulose) (HPC)
[4] = dose: 400.0 mg/kg/injection, schedule: Q01DX009 (ip), vehicle: Klucel (hydroxypropylcellulose) (HPC)
[5] = dose: 100.0 mg/kg/injection, schedule: Q04DX003 (ip), vehicle: saline with Tween-80
[6] = dose: 400.0 mg/kg/injection, schedule: Q04DX003 (ip), vehicle: saline with Tween-80
[7] = dose: 50.0 mg/kg/injection, schedule: Q01DX009 (ip), vehicle: saline with Tween-80
[8] = dose: 100.0 mg/kg/injection, schedule: Q01DX009 (ip), vehicle: saline with Tween-80
[9] = dose: 200.0 mg/kg/injection, schedule: Q01DX009 (ip), vehicle: saline with Tween-80
[10] = dose: 25.0 mg/kg/injection, schedule: Q01DX009 (ip), vehicle: saline
[11] = dose: 100.0 mg/kg/injection, schedule: Q01DX009 (ip), vehicle: saline
[12] = dose: 200.0 mg/kg/injection, schedule: Q01DX009 (ip), vehicle: saline

Measured: T/C

Cc1ccc(NO)c(C)c1
inactive: dose: 50.0 mg/kg/injection, schedule: Q01DX005 (ip), vehicle: saline with Tween-80 113 % of control | dose: 100.0 mg/kg/injection, schedule: Q01DX005 (ip), vehicle: saline with Tween-80 108 % of control

Cc1ccc(C(=O)/C=C/c2ccccc2O)cc1
inactive: [1] 99 % of control | [2] 109 % of control | [3] 107 % of control | [4] 101 % of control

Nc1nc(N)c2nc(Sc3ccc(Cl)cc3)c(-c3ccccc3)nc2n1
inactive: [5] 88 % of control | [6] 99 % of control

C=C(Cl)CSCC
inactive: dose: 6.25 mg/kg/injection, schedule: Q04DX003 (ip), vehicle: alcohol 100 % of control | dose: 12.5 mg/kg/injection, schedule: Q01DX009 (ip), vehicle: acetone 118 % of control | dose: 12.5 mg/kg/injection, schedule: Q04DX003 (ip), vehicle: alcohol 105 % of control | dose: 25.0 mg/kg/injection, schedule: Q01DX009 (ip), vehicle: acetone 113 % of control | dose: 25.0 mg/kg/injection, schedule: Q04DX003 (ip), vehicle: alcohol 100 % of control | dose: 45.0 mg/kg/injection, schedule: Q01DX001 (ip), vehicle: saline 109 % of control | dose: 90.0 mg/kg/injection, schedule: Q01DX001 (ip), vehicle: saline 109 % of control | dose: 120.0 mg/kg/injection, schedule: Q04DX003 (ip), vehicle: saline 109 % of control | dose: 180.0 mg/kg/injection, schedule: Q04DX003 (ip), vehicle: saline 95 % of control | dose: 270.0 mg/kg/injection, schedule: Q04DX003 (ip), vehicle: saline 86 % of control

Oc1ccc(CNCCNCCNCc2ccc(O)cc2)cc1
inactive: dose: 12.5 mg/kg/injection, schedule: Q04DX003 (ip), vehicle: saline 100 % of control | dose: 25.0 mg/kg/injection, schedule: Q04DX003 (ip), vehicle: saline 107 % of control | dose: 50.0 mg/kg/injection, schedule: Q04DX003 (ip), vehicle: saline 109 % of control | dose: 100.0 mg/kg/injection, schedule: Q04DX003 (ip), vehicle: saline 100 % of control | dose: 200.0 mg/kg/injection, schedule: Q04DX003 (ip), vehicle: saline 105 % of control

C=C1CC2(CCC(C(C)(C)C)CC2)OC1=O (stereo not drawn)
inactive: dose: 100.0 mg/kg/injection, schedule: Q04DX002 (ip), vehicle: saline with Tween-80 105 % of control | dose: 200.0 mg/kg/injection, schedule: Q04DX002 (ip), vehicle: saline with Tween-80 108 % of control | dose: 400.0 mg/kg/injection, schedule: Q04DX002 (ip), vehicle: saline with Tween-80 97 % of control

CC(C)C(C(=O)c1ccccc1)c1ccccc1 (stereo not drawn)
inactive: dose: 25.0 mg/kg/injection, schedule: Q01DX009 (ip), vehicle: saline with Tween-80 95 % of control | [7] 109 % of control | [8] 100 % of control | [5] 100 % of control | [9] 100 % of control | dose: 200.0 mg/kg/injection, schedule: Q04DX003 (ip), vehicle: saline with Tween-80 118 % of control | dose: 400.0 mg/kg/injection, schedule: Q01DX009 (ip), vehicle: saline with Tween-80 100 % of control | [6] 100 % of control

CN1CCN(CCNc2ccc(CO)c3sc4ccccc4c(=O)c23)CC1
inactive: dose: 25.0 mg/kg/injection, schedule: Q01DX009 (ip), vehicle: Klucel (hydroxypropylcellulose) (HPC) 120 % of control | [1] 109 % of control
active: [2] 151 % of control

CCOC(=O)C(Cc1ccc(N(CCCl)CCCl)cc1)NC(=O)C(C)NC(C)=O (stereo not drawn)
inactive: dose: 5.0 mg/kg/injection, schedule: Q04DX003 (ip), vehicle: water 99 % of control | dose: 10.0 mg/kg/injection, schedule: Q04DX003 (ip), vehicle: water 99 % of control | dose: 20.0 mg/kg/injection, schedule: Q04DX003 (ip), vehicle: water 112 % of control | dose: 40.0 mg/kg/injection, schedule: Q04DX003 (ip), vehicle: water 116 % of control

CC(=O)OC1CCC(C)(C2CCC3(C)C(C(C)CCCC(C)C)CCC3C2CC(=O)O)C(=O)C1 (stereo not drawn)
inactive: [2] 90 % of control | [3] 90 % of control | [4] 95 % of control

CC12CCC(CC1)C(C)(C)O2
inactive: [10] 106 % of control | dose: 50.0 mg/kg/injection, schedule: Q01DX009 (ip), vehicle: saline 117 % of control | [11] 106 % of control | [12] 107 % of control

C(=N\OCCc1ccccc1)/c1cccnc1
inactive: dose: 100.0 mg/kg/injection, schedule: Q01DX009 (ip), vehicle: saline sonified 100 % of control | dose: 200.0 mg/kg/injection, schedule: Q01DX009 (ip), vehicle: saline sonified 110 % of control

O=C(O)Cc1ccc(C2CCCCC2)cc1
inactive: [2] 91 % of control and 95 % of control | [3] 90 % of control | [4] 90 % of control and 100 % of control

CCC(C#N)(c1ccccc1)c1ccccc1
inactive: [2] 90 % of control | dose: 100.0 mg/kg/injection, schedule: Q04DX003 (ip), vehicle: Klucel (hydroxypropylcellulose) (HPC) 95 % of control | dose: 200.0 mg/kg/injection, schedule: Q04DX003 (ip), vehicle: Klucel (hydroxypropylcellulose) (HPC) 95 % of control | [4] 100 % of control | dose: 400.0 mg/kg/injection, schedule: Q04DX003 (ip), vehicle: Klucel (hydroxypropylcellulose) (HPC) 100 % of control

N#Cc1cn(C2OC(CO)C(O)C2O)c2ncnc(N)c12 (stereo not drawn)
inactive: dose: 0.38 mg/kg/injection, schedule: Q01DX009 (ip), vehicle: other 105 % of control | dose: 3.0 mg/kg/injection, schedule: Q04DX003 (ip), vehicle: other 100 % of control
active: dose: 0.37 mg/kg/injection, schedule: Q04DX003 (ip), vehicle: other 163 % of control | dose: 0.56 mg/kg/injection, schedule: Q04DX003 (ip), vehicle: other 159 % of control | dose: 0.83 mg/kg/injection, schedule: Q04DX003 (ip), vehicle: other 172 % of control | dose: 0.88 mg/kg/injection, schedule: Q04DX003 (ip), vehicle: other 154 % of control | dose: 1.25 mg/kg/injection, schedule: Q04DX003 (ip), vehicle: other 204 % of control | dose: 1.33 mg/kg/injection, schedule: Q04DX003 (ip), vehicle: other 200 % of control | dose: 2.0 mg/kg/injection, schedule: Q04DX003 (ip), vehicle: other 150 % of control

C1CC[N-]CC1.C1CC[N-]CC1.O=C(O)C(=O)O.[Pt+2]
inactive: [10] 120 % of control | dose: 80.0 mg/kg/injection, schedule: Q01DX005 (ip), vehicle: Klucel (hydroxypropylcellulose) (HPC) 123 % of control | [11] 120 % of control | [12] 100 % of control | dose: 400.0 mg/kg/injection, schedule: Q04DX003 (ip), vehicle: saline 118 % of control

Cc1ccc(-c2nc3ccccc3c(=O)n2/N=C/c2ccc(Cl)cc2Cl)cc1
inactive: [7] 100 % of control | [8] 89 % of control | [9] 90 % of control

CCCCCCCSCCSCCSCCCCCCC
inactive: dose: 100.0 mg/kg/injection, schedule: Q01DX001 (ip), vehicle: Klucel (hydroxypropylcellulose) (HPC) 100 % of control | dose: 200.0 mg/kg/injection, schedule: Q01DX001 (ip), vehicle: Klucel (hydroxypropylcellulose) (HPC) 100 % of control | dose: 400.0 mg/kg/injection, schedule: Q01DX001 (ip), vehicle: Klucel (hydroxypropylcellulose) (HPC) 100 % of control
